Measured values: patent publication US20150087967A1, “METHOD AND APPARATUS USING MAGNETIC RESONANCE IMAGING FOR TISSUE PHENOTYPING AND MONITORING” (Oregon Health & Science University, priority 2012, published 2015)

System: soft tissue sarcomas
Assay: Phase I clinical trial in soft tissue sarcoma patients: MRI (DCE-MRI, DWI, RECIST) after two weeks of Sorafenib only treatment (TP1) versus before therapy (TP0)
Assay type: in vivo, human
Experimental: Patients with biopsy-proven, grade 2-3, deep, and >5 cm soft tissue sarcomas participated in a phase I clinical trial in which the vascular endothelial growth factor receptor (VEGFR) inhibitor, Sorafenib, was added to a preoperative chemoradiotherapy regimen. Research MRI studies were performed at time-point zero (TP0)—before therapy, TP1, after two weeks of Sorafenib only treatment, and TP2, after eight more weeks of treatment with Sorafenib plus chemoradiation therapy, followed by surgery and pathology review including estimation of tumor histologic necrosis. A total of eleven patients consented to the research MRI scans, with 9 of them having at least two DCE-MRI studies (at TP0 and TP1). In these 9 patients, five masses were located in the thigh, two in the calf, one in the knee, and one in the shoulder.
The MRI studies were performed using a 3T Siemens instrument with the body transmit and phased-array body matrix (combined with a spine matrix) receive RF coils. Following scout and axial T2-weighted MRI, sagittal diffusion-weighted imaging (DWI) was performed (in seven of the 9 patients) using a spin-echo single-shot EPI sequence with TE/TR=104/8000 ms, 24-36 cm FOV, 5 mm slice thickness with zero gap, 192×192 matrix size, and b values of 0, 500, and 1000 s/mm^2 applied in three orthogonal directions.
Subsequently, a 3D RF-spoiled gradient-echo sequence was used to acquire sagittal DCE-MRI data with 10 degree flip angle, TE/TR=[…], and 320×160 matrix size. […]
ADC trace maps were generated with manufacturer's DWI data processing software. […] The arterial input functions (AIFs) used for the quantitative analyses were directly measured from ROIs placed in a femoral artery (for thigh, knee, and calf tumors) and an axillary artery (for the shoulder mass). The whole tumor ROI DWI/DCE-MRI parameter values were calculated by averaging the ROI values from each of the image slices covering the entire tumor, weighted by the pixel numbers within the image slice ROIs. Pixel parameter values were analyzed with histograms and the amplitude and median values were obtained. […]

CNC(=O)c1cc(Oc2ccc(NC(=O)Nc3ccc(Cl)c(C(F)(F)F)c3)cc2)ccn1 [Sorafenib]
change in ADC (apparent diffusion coefficient) (% change at TP1 (two weeks of Sorafenib only) relative to TP0): small | change in tumor size (RECIST) (% change at TP1 (two weeks of Sorafenib only) relative to TP0, 9 patients): small | tumor vascular effect detected by DCE-MRI biomarkers (patients with grade 2-3 soft tissue sarcomas, after two weeks of Sorafenib only treatment (TP1)): Tumor vascular shut-down induced by Sorafenib preceded cell death
